Experimental data: ChEMBL document CHEMBL3994565 (Medchemcomm, 2016)

Legend:
[1] = Cytotoxicity against MDCK cells assessed as cell viability at 100 uM after 40 hrs by CellTiter-Glo assay relative to control; assay type: cell-based, Canis lupus familiaris; conditions: dog, read-out: Activity
[2] = Antiviral activity against Influenza A virus (A/WSN/33(H1N1)) infected in MDCK cells assessed as inhibition of virus-induced cytopathic effect at 100 uM incubated for 40 hrs by CellTiter-Glo assay; assay type: functional, Influenza A virus (A/WSN/1933(H1N1))

COC(=O)[C@@]1(n2cc(CNC(=O)[C@]34CC[C@@H](C)[C@H](C)[C@@H]3C3=CC[C@@H]5[C@@]6(C)CC[C@H](O)C(C)(C)[C@@H]6CC[C@@]5(C)[C@]3(C)CC4)nn2)C[C@H](OC(C)=O)[C@@H](NC(C)=O)[C@H]([C@H](OC(C)=O)[C@@H](COC(C)=O)OC(C)=O)O1
viability at 40 h, 100 µM [1]: 2.5%

COC(=O)[C@@]1(OCCOC(=O)[C@]23CC[C@@H](C)[C@H](C)[C@@H]2C2=CC[C@@H]4[C@@]5(C)CC[C@H](O)C(C)(C)[C@@H]5CC[C@@]4(C)[C@]2(C)CC3)C[C@H](OC(C)=O)[C@@H](NC(C)=O)[C@H]([C@H](OC(C)=O)[C@@H](COC(C)=O)OC(C)=O)O1
viability at 40 h, 100 µM [1]: 0.2%

COC(=O)[C@@]1(OCCn2cc(CNC(=O)[C@]34CCC(C)(C)C[C@@H]3C3=CC[C@@H]5[C@@]6(C)CC[C@H](O)C(C)(C)[C@@H]6CC[C@@]5(C)[C@]3(C)C[C@H]4O)nn2)C[C@H](OC(C)=O)[C@@H](NC(C)=O)[C@H]([C@H](OC(C)=O)[C@@H](COC(C)=O)OC(C)=O)O1
viability at 40 h, 100 µM [1]: 105% | inhibition at 100 µM [2]: 15.3%

COC(=O)[C@@]1(OCCOC(=O)[C@]23CCC(C)(C)C[C@@H]2C2=CC[C@@H]4[C@@]5(C)CC[C@H](O)C(C)(C)[C@@H]5CC[C@@]4(C)[C@]2(C)CC3)C[C@H](OC(C)=O)[C@@H](NC(C)=O)[C@H]([C@H](OC(C)=O)[C@@H](COC(C)=O)OC(C)=O)O1
viability at 40 h, 100 µM [1]: 90.1% | inhibition at 100 µM [2]: 18.7%

COC(=O)[C@@]1(OCCn2cc(CNC(=O)[C@]34CCC(C)(C)C[C@@H]3C3=CC[C@@H]5[C@@]6(C)CC[C@H](O)C(C)(C)[C@@H]6CC[C@@]5(C)[C@]3(C)C[C@H]4O)nn2)C[C@H](O)[C@@H](NC(C)=O)[C@H]([C@H](O)[C@H](O)CO)O1
viability at 40 h, 100 µM [1]: 107% | inhibition at 100 µM [2]: 2.2%

COC(=O)[C@@]1(OCCI)C[C@H](OC(C)=O)[C@@H](NC(C)=O)[C@H]([C@H](OC(C)=O)[C@@H](COC(C)=O)OC(C)=O)O1
viability at 40 h, 100 µM [1]: 103% | inhibition at 100 µM [2]: 6.3%

CC1(C)CC[C@]2(C(=O)O)[C@H](O)C[C@]3(C)C(=CC[C@@H]4[C@@]5(C)CC[C@H](O)C(C)(C)[C@@H]5CC[C@]43C)[C@@H]2C1
viability at 40 h, 100 µM [1]: 40.1%

C[C@H]1[C@H](C)CC[C@]2(C(=O)O)CC[C@]3(C)C(=CC[C@@H]4[C@@]5(C)CC[C@H](O)C(C)(C)[C@@H]5CC[C@]43C)[C@H]12 [URSOLIC ACID]
viability at 40 h, 100 µM [1]: 0.4%

COC(=O)[C@@]1(n2cc(CNC(=O)[C@]34CCC(C)(C)C[C@@H]3C3=CC[C@@H]5[C@@]6(C)CC[C@H](O)C(C)(C)[C@@H]6CC[C@@]5(C)[C@]3(C)C[C@H]4O)nn2)C[C@H](OC(C)=O)[C@@H](NC(C)=O)[C@H]([C@H](OC(C)=O)[C@@H](COC(C)=O)OC(C)=O)O1
viability at 40 h, 100 µM [1]: 103% | inhibition at 100 µM [2]: -5.2%

COC(=O)[C@@]1(OCCOC(=O)[C@]23CCC(C)(C)C[C@@H]2C2=CC[C@@H]4[C@@]5(C)CC[C@H](O)C(C)(C)[C@@H]5CC[C@@]4(C)[C@]2(C)C[C@H]3O)C[C@H](O)[C@@H](NC(C)=O)[C@H]([C@H](O)[C@H](O)CO)O1
viability at 40 h, 100 µM [1]: 99.8% | inhibition at 100 µM [2]: -11.8%

COC(=O)[C@@]1(OCCOC(=O)[C@]23CCC(C)(C)C[C@@H]2C2=CC[C@@H]4[C@@]5(C)CC[C@H](O)C(C)(C)[C@@H]5CC[C@@]4(C)[C@]2(C)CC3)C[C@H](O)[C@@H](NC(C)=O)[C@H]([C@H](O)[C@H](O)CO)O1
viability at 40 h, 100 µM [1]: 82.4% | inhibition at 100 µM [2]: 16.4%

C=C(C)[C@@H]1CC[C@]2(C(=O)NCc3cn([C@]4(C(=O)OC)C[C@H](OC(C)=O)[C@@H](NC(C)=O)[C@H]([C@H](OC(C)=O)[C@@H](COC(C)=O)OC(C)=O)O4)nn3)CC[C@]3(C)[C@H](CC[C@@H]4[C@@]5(C)CC[C@H](O)C(C)(C)[C@@H]5CC[C@]43C)[C@@H]12
viability at 40 h, 100 µM [1]: 100% | inhibition at 100 µM [2]: 16%

C=C(C)[C@@H]1CC[C@]2(C(=O)NCc3cn(CCO[C@]4(C(=O)OC)C[C@H](O)[C@@H](NC(C)=O)[C@H]([C@H](O)[C@H](O)CO)O4)nn3)CC[C@]3(C)[C@H](CC[C@@H]4[C@@]5(C)CC[C@H](O)C(C)(C)[C@@H]5CC[C@]43C)[C@@H]12
viability at 40 h, 100 µM [1]: 104% | inhibition at 100 µM [2]: 12.2%

COC(=O)[C@@]1(n2cc(CNC(=O)[C@]34CCC(C)(C)C[C@@H]3C3=CC[C@@H]5[C@@]6(C)CC[C@H](O)C(C)(C)[C@@H]6CC[C@@]5(C)[C@]3(C)CC4)nn2)C[C@H](O)[C@@H](NC(C)=O)[C@H]([C@H](O)[C@H](O)CO)O1
viability at 40 h, 100 µM [1]: 106% | inhibition at 100 µM [2]: -4.6%

COC(=O)[C@@]1(OCCn2cc(CNC(=O)[C@]34CC[C@@H](C)[C@H](C)[C@@H]3C3=CC[C@@H]5[C@@]6(C)CC[C@H](O)C(C)(C)[C@@H]6CC[C@@]5(C)[C@]3(C)CC4)nn2)C[C@H](O)[C@@H](NC(C)=O)[C@H]([C@H](O)[C@H](O)CO)O1
viability at 40 h, 100 µM [1]: 20.1%

COC(=O)[C@@]1(n2cc(CNC(=O)[C@]34CCC(C)(C)C[C@@H]3C3=CC[C@@H]5[C@@]6(C)CC[C@H](O)C(C)(C)[C@@H]6CC[C@@]5(C)[C@]3(C)CC4)nn2)C[C@H](OC(C)=O)[C@@H](NC(C)=O)[C@H]([C@H](OC(C)=O)[C@@H](COC(C)=O)OC(C)=O)O1
viability at 40 h, 100 µM [1]: 104% | inhibition at 100 µM [2]: 1.3%

C=C(C)[C@@H]1CC[C@]2(C(=O)NCc3cn([C@]4(C(=O)OC)C[C@H](O)[C@@H](NC(C)=O)[C@H]([C@H](O)[C@H](O)CO)O4)nn3)CC[C@]3(C)[C@H](CC[C@@H]4[C@@]5(C)CC[C@H](O)C(C)(C)[C@@H]5CC[C@]43C)[C@@H]12
viability at 40 h, 100 µM [1]: 104% | inhibition at 100 µM [2]: -8.1%

COC(=O)[C@@]1(OCCn2cc(CNC(=O)[C@]34CC[C@@H](C)[C@H](C)[C@@H]3C3=CC[C@@H]5[C@@]6(C)CC[C@H](O)C(C)(C)[C@@H]6CC[C@@]5(C)[C@]3(C)CC4)nn2)C[C@H](OC(C)=O)[C@@H](NC(C)=O)[C@H]([C@H](OC(C)=O)[C@@H](COC(C)=O)OC(C)=O)O1
viability at 40 h, 100 µM [1]: 3.3%

COC(=O)[C@@]1(OCCOC(=O)[C@]23CC[C@@H](C)[C@H](C)[C@@H]2C2=CC[C@@H]4[C@@]5(C)CC[C@H](O)C(C)(C)[C@@H]5CC[C@@]4(C)[C@]2(C)CC3)C[C@H](O)[C@@H](NC(C)=O)[C@H]([C@H](O)[C@H](O)CO)O1
viability at 40 h, 100 µM [1]: 0.1%

COC(=O)[C@@]1(OCCOC(=O)[C@]23CCC(C)(C)C[C@@H]2C2=CC[C@@H]4[C@@]5(C)CC[C@H](O)C(C)(C)[C@@H]5CC[C@@]4(C)[C@]2(C)C[C@H]3O)C[C@H](OC(C)=O)[C@@H](NC(C)=O)[C@H]([C@H](OC(C)=O)[C@@H](COC(C)=O)OC(C)=O)O1
viability at 40 h, 100 µM [1]: 84.5% | inhibition at 100 µM [2]: 31.2%

CC1(C)CC[C@]2(C(=O)O)CC[C@]3(C)C(=CC[C@@H]4[C@@]5(C)CC[C@H](O)C(C)(C)[C@@H]5CC[C@]43C)[C@@H]2C1 [OLEANOLIC_ACID]
viability at 40 h, 100 µM [1]: 60.9%

COC(=O)[C@@]1(n2cc(CNC(=O)[C@]34CC[C@@H](C)[C@H](C)[C@@H]3C3=CC[C@@H]5[C@@]6(C)CC[C@H](O)C(C)(C)[C@@H]6CC[C@@]5(C)[C@]3(C)CC4)nn2)C[C@H](O)[C@@H](NC(C)=O)[C@H]([C@H](O)[C@H](O)CO)O1
viability at 40 h, 100 µM [1]: 12.2%
